Reference: ChEMBL document CHEMBL1130364, “3-Amino-1,2-benzisoxazoles: A new family of potent inhibitors of LTB4 binding to the human neutrophils” (Bioorg Med Chem Lett, 1997)

Experiments:
[1] = target: Leukotriene B4 receptor 1 (Homo sapiens) (UniProt Q15722); assay: The compound was tested for inhibition of [3H]LTB4 binding to Leukotriene B4 (LTB4) receptor on the human neutrophils (PMN) at concentration of 100 nM
[2] = target: Leukotriene B4 receptor 1 (Homo sapiens) (UniProt Q15722); assay: The compound was tested for inhibition of [3H]-LTB4 binding to Leukotriene B4 (LTB4) receptor on the human neutrophils (PMN) at concentration of 10 nM
[3] = target: Leukotriene B4 receptor 1 (Homo sapiens) (UniProt Q15722); assay: The compound was tested for inhibition of [3H]LTB4 binding to Leukotriene B4 (LTB4) receptor on the human neutrophils (PMN) at concentration of 1 uM

Leukotriene B4 receptor 1 (Homo sapiens), sequence (Q15722 whole entry): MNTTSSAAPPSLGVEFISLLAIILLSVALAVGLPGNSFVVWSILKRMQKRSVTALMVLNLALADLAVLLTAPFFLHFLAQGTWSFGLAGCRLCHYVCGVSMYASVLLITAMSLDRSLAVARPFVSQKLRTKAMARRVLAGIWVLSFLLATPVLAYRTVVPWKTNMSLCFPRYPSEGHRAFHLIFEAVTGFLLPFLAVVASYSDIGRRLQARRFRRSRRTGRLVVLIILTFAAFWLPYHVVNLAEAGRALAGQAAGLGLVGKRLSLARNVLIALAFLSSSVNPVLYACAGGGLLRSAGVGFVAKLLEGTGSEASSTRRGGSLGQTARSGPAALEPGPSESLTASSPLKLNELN

| inhibition [1] | inhibition [2] | inhibition [3] | SMILES |
| --- | --- | --- | --- |
| 37% | < 10% | 92% | COc1cc(C(=O)N(C(C)C)C(C)C)ccc1OCCCOc1ccc2c(N)noc2c1 |
| 95% | 64% | 99% | COc1cc(C(=O)N(C(C)C)C(C)C)ccc1OCCCCOc1ccc2c(N)noc2c1 |
| 10% | < 10% | 90% | COc1cc(C(=O)N(C(C)C)C(C)C)ccc1OCCCCCOc1ccc2c(N)noc2c1 |
